Experimental data from PubChem BioAssay (NCI).
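Values below derive from 48-hour exposures of cells grown in 96-well plates, with endpoints linearly interpolated between the two concentrations bracketing the appropriate inhibition level. At the GI50, growth is halved. TGI marks complete inhibition of growth.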

Legend:
Assay in all cases: NCI-60 cell line screen, 48 h
MDA-MB-435 = test system: MDA-MB-435
CCRF-CEM leukemia = test system: CCRF-CEM leukemia
TK-10 renal = test system: TK-10 renal
T-47D breast = test system: T-47D breast
HL-60(TB) leukemia = test system: HL-60(TB) leukemia
DU-145 prostate = test system: DU-145 prostate
SNB-19 CNS = test system: SNB-19 CNS
NCI-H522 lung = test system: NCI-H522 lung
SW-620 colon = test system: SW-620 colon
A498 renal = test system: A498 renal
UO-31 renal = test system: UO-31 renal
CAKI-1 renal = test system: CAKI-1 renal
KM12 colon = test system: KM12 colon
MOLT-4 leukemia = test system: MOLT-4 leukemia
NCI/ADR-RES ovarian = test system: NCI/ADR-RES ovarian
M14 melanoma = test system: M14 melanoma
RPMI-8226 leukemia = test system: RPMI-8226 leukemia
HCT-15 colon = test system: HCT-15 colon
UACC-257 melanoma = test system: UACC-257 melanoma
ACHN renal = test system: ACHN renal
OVCAR-3 ovarian = test system: OVCAR-3 ovarian
OVCAR-4 ovarian = test system: OVCAR-4 ovarian
OVCAR-5 ovarian = test system: OVCAR-5 ovarian
SK-OV-3 ovarian = test system: SK-OV-3 ovarian
SNB-75 CNS = test system: SNB-75 CNS
786-0 renal = test system: 786-0 renal
K-562 leukemia = test system: K-562 leukemia
SF-268 CNS = test system: SF-268 CNS
SF-295 CNS = test system: SF-295 CNS
COLO 205 colon = test system: COLO 205 colon
HS 578T breast = test system: HS 578T breast
NCI-H460 lung = test system: NCI-H460 lung
SK-MEL-5 melanoma = test system: SK-MEL-5 melanoma
HCC-2998 colon = test system: HCC-2998 colon
NCI-H226 lung = test system: NCI-H226 lung
HCT-116 colon = test system: HCT-116 colon
SF-539 CNS = test system: SF-539 CNS
SN12C renal = test system: SN12C renal
HOP-62 NSCLC = test system: HOP-62 NSCLC
SR leukemia = test system: SR leukemia
A549 NSCLC = test system: A549 NSCLC
EKVX NSCLC = test system: EKVX NSCLC
NCI-H23 lung = test system: NCI-H23 lung
RXF 393 renal = test system: RXF 393 renal
OVCAR-8 ovarian = test system: OVCAR-8 ovarian
UACC-62 melanoma = test system: UACC-62 melanoma
LOX IMVI melanoma = test system: LOX IMVI melanoma
HT29 colon = test system: HT29 colon
SK-MEL-2 melanoma = test system: SK-MEL-2 melanoma
HOP-92 NSCLC = test system: HOP-92 NSCLC
MCF7 breast = test system: MCF7 breast
MDA-MB-231 breast = test system: MDA-MB-231 breast
MALME-3M melanoma = test system: MALME-3M melanoma
U251 CNS = test system: U251 CNS
SK-MEL-28 melanoma = test system: SK-MEL-28 melanoma
PC-3 prostate = test system: PC-3 prostate

COc1cc(C(=O)/C=C/c2ccc(OCCCCCC[P+](c3ccccc3)(c3ccccc3)c3ccccc3)cc2)cc(OC)c1OC
GI50 (MDA-MB-435): 337 nM | TGI (MDA-MB-435): 1140 nM | GI50 (CCRF-CEM leukemia): 557 nM | TGI (CCRF-CEM leukemia): 3090 nM | GI50 (TK-10 renal): 1340 nM | TGI (TK-10 renal): 2810 nM | GI50 (T-47D breast): 261 nM | TGI (T-47D breast): 1770 nM | GI50 (HL-60(TB) leukemia): 227 nM | TGI (HL-60(TB) leukemia): 643 nM | GI50 (DU-145 prostate): 698 nM | TGI (DU-145 prostate): 1960 nM | GI50 (SNB-19 CNS): 341 nM | TGI (SNB-19 CNS): 1310 nM | GI50 (NCI-H522 lung): 342 nM | TGI (NCI-H522 lung): 2090 nM | GI50 (SW-620 colon): 358 nM | TGI (SW-620 colon): 1360 nM | GI50 (A498 renal): 710 nM | TGI (A498 renal): 1970 nM | GI50 (UO-31 renal): 1460 nM | TGI (UO-31 renal): 2780 nM | GI50 (CAKI-1 renal): 1640 nM | TGI (CAKI-1 renal): 2990 nM | GI50 (KM12 colon): 355 nM | TGI (KM12 colon): 1310 nM | GI50 (MOLT-4 leukemia): 559 nM | TGI (MOLT-4 leukemia): 3000 nM | GI50 (NCI/ADR-RES ovarian): 3580 nM | TGI (NCI/ADR-RES ovarian): > 100000 nM | GI50 (M14 melanoma): 971 nM | TGI (M14 melanoma): 3180 nM | GI50 (RPMI-8226 leukemia): 214 nM | TGI (RPMI-8226 leukemia): 703 nM | GI50 (HCT-15 colon): 1600 nM | TGI (HCT-15 colon): 3130 nM | GI50 (UACC-257 melanoma): 298 nM | TGI (UACC-257 melanoma): 1260 nM | GI50 (ACHN renal): 1500 nM | TGI (ACHN renal): 2820 nM | GI50 (OVCAR-3 ovarian): 347 nM | TGI (OVCAR-3 ovarian): 1160 nM | GI50 (OVCAR-4 ovarian): 374 nM | TGI (OVCAR-4 ovarian): 1480 nM | GI50 (OVCAR-5 ovarian): 754 nM | TGI (OVCAR-5 ovarian): 2100 nM | GI50 (SK-OV-3 ovarian): 1320 nM | TGI (SK-OV-3 ovarian): 2700 nM

CCCCNCC(O)c1cc2c(Cl)cc(Cl)cc2c2cc(C(F)(F)F)ccc12 (centres undefined)
GI50 (SNB-75 CNS): 1700 nM | TGI (SNB-75 CNS): 3230 nM | GI50 (786-0 renal): 1510 nM | TGI (786-0 renal): 3430 nM | GI50 (K-562 leukemia): 1610 nM | TGI (K-562 leukemia): 3410 nM | GI50 (MDA-MB-435): 1800 nM | TGI (MDA-MB-435): 3560 nM | GI50 (SF-268 CNS): 1840 nM | TGI (SF-268 CNS): 3710 nM | GI50 (CCRF-CEM leukemia): 2500 nM | TGI (CCRF-CEM leukemia): 5170 nM | GI50 (TK-10 renal): 1980 nM | TGI (TK-10 renal): 3510 nM | GI50 (SF-295 CNS): 1850 nM | TGI (SF-295 CNS): 3670 nM | GI50 (T-47D breast): 1740 nM | TGI (T-47D breast): 3800 nM | GI50 (HL-60(TB) leukemia): 1770 nM | TGI (HL-60(TB) leukemia): 3610 nM | GI50 (COLO 205 colon): 1780 nM | TGI (COLO 205 colon): 3310 nM | GI50 (DU-145 prostate): 1890 nM | TGI (DU-145 prostate): 3360 nM | GI50 (HS 578T breast): 1590 nM | TGI (HS 578T breast): 3670 nM | GI50 (SNB-19 CNS): 1820 nM | TGI (SNB-19 CNS): 3510 nM | GI50 (NCI-H522 lung): 1750 nM | TGI (NCI-H522 lung): 3350 nM | GI50 (SW-620 colon): 1690 nM | TGI (SW-620 colon): 3220 nM | GI50 (NCI-H460 lung): 1680 nM | TGI (NCI-H460 lung): 3300 nM | GI50 (SK-MEL-5 melanoma): 1710 nM | TGI (SK-MEL-5 melanoma): 3100 nM | GI50 (HCC-2998 colon): 1490 nM | TGI (HCC-2998 colon): 2940 nM | GI50 (NCI-H226 lung): 1840 nM | TGI (NCI-H226 lung): 3720 nM | GI50 (A498 renal): 1360 nM | TGI (A498 renal): 2700 nM | GI50 (UO-31 renal): 1340 nM | TGI (UO-31 renal): 2830 nM | GI50 (HCT-116 colon): 1530 nM | TGI (HCT-116 colon): 3050 nM | GI50 (CAKI-1 renal): 1710 nM | TGI (CAKI-1 renal): 3440 nM | GI50 (KM12 colon): 1930 nM | TGI (KM12 colon): 3450 nM | GI50 (SF-539 CNS): 1690 nM | TGI (SF-539 CNS): 3440 nM | GI50 (SN12C renal): 1850 nM | TGI (SN12C renal): 3560 nM | GI50 (HOP-62 NSCLC): 1770 nM | TGI (HOP-62 NSCLC): 3280 nM | GI50 (SR leukemia): 1420 nM | TGI (SR leukemia): 3930 nM | GI50 (A549 NSCLC): 1820 nM | TGI (A549 NSCLC): 3400 nM | GI50 (EKVX NSCLC): 1820 nM | TGI (EKVX NSCLC): 3610 nM | GI50 (NCI-H23 lung): 1590 nM | TGI (NCI-H23 lung): 3320 nM | GI50 (RXF 393 renal): 1480 nM | TGI (RXF 393 renal): 2850 nM | GI50 (OVCAR-8 ovarian): 1890 nM | TGI (OVCAR-8 ovarian): 3860 nM | GI50 (UACC-62 melanoma): 1860 nM | TGI (UACC-62 melanoma): 3510 nM | GI50 (M14 melanoma): 1810 nM | TGI (M14 melanoma): 3380 nM | GI50 (RPMI-8226 leukemia): 2070 nM | TGI (RPMI-8226 leukemia): 4720 nM | GI50 (HCT-15 colon): 1790 nM | TGI (HCT-15 colon): 4140 nM | GI50 (LOX IMVI melanoma): 1660 nM | TGI (LOX IMVI melanoma): 3600 nM | GI50 (HT29 colon): 1770 nM | TGI (HT29 colon): 3230 nM | GI50 (SK-MEL-2 melanoma): 2200 nM | TGI (SK-MEL-2 melanoma): 3880 nM | GI50 (HOP-92 NSCLC): 1200 nM | TGI (HOP-92 NSCLC): 2710 nM | GI50 (UACC-257 melanoma): 1830 nM | TGI (UACC-257 melanoma): 3510 nM | GI50 (ACHN renal): 1740 nM | TGI (ACHN renal): 3450 nM | GI50 (MCF7 breast): 1480 nM | TGI (MCF7 breast): 2960 nM | GI50 (MDA-MB-231 breast): 1600 nM | TGI (MDA-MB-231 breast): 3270 nM | GI50 (OVCAR-3 ovarian): 1950 nM | TGI (OVCAR-3 ovarian): 3460 nM | GI50 (MALME-3M melanoma): 2010 nM | TGI (MALME-3M melanoma): 4260 nM | GI50 (U251 CNS): 1720 nM | TGI (U251 CNS): 3200 nM | GI50 (OVCAR-4 ovarian): 1930 nM | TGI (OVCAR-4 ovarian): 3770 nM | GI50 (OVCAR-5 ovarian): 1560 nM | TGI (OVCAR-5 ovarian): 3080 nM | GI50 (SK-MEL-28 melanoma): 1900 nM | TGI (SK-MEL-28 melanoma): 3410 nM | GI50 (PC-3 prostate): 1580 nM | TGI (PC-3 prostate): 3030 nM
